Reference: article PMC6611404 (Frontiers in Aging Neuroscience, 2019)
Several values for one entry are separate records, joined by “and”; a condition that tells them apart may be missing. Equal values may be shown once. Read-outs that look alike come from different tables or passages of the source.

Columns and labels:
[1] = molecular target: T1, AChE from human erythrocytes (Homo sapiens, UniProt P22303); assay: biochemical; conditions: for inhibition at 1 µM: read-out: (h)AChE % inhibition at 10^−6M
T1 construct: AChE from human erythrocytes; purchased Sigma Aldrich; host or cells: human erythrocytes (natural source)
T1 sequence (P22303 other isoform, or with tags, fused parts or gaps): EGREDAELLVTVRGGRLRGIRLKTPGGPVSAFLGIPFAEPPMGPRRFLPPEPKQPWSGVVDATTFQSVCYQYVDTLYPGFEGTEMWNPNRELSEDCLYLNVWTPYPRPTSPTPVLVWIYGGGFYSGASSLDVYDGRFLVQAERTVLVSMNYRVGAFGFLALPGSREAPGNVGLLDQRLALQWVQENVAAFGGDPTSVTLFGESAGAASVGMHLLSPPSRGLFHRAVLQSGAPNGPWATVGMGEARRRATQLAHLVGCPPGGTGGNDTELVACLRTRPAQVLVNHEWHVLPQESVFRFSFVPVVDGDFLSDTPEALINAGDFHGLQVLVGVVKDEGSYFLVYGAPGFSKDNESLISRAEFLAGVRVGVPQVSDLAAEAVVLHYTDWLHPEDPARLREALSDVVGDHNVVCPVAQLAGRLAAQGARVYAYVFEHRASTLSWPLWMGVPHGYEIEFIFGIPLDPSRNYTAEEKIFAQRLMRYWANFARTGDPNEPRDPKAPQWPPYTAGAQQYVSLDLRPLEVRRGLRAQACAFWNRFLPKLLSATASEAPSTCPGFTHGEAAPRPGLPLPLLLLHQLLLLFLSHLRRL
Procedure: Acetylthiocholine iodide and 5,5-dithiobis-(2-nitrobenzoic) acid (DTNB) were purchased from Sigma Aldrich. AChE from human erythrocytes (buffered aqueous solution, ≥500 units/mg protein (BCA), Sigma Aldrich) was diluted in 20 mM HEPES buffer pH 8, 0.1% Triton X-100 such as to have enzyme solution with 0.25 unit/mL enzyme activity. In the procedure, 100 μL of 0.3 mM DTNB dissolved in phosphate buffer pH 7.4 was added into the 96-well plate followed by 50 μL of test compound solution and 50 μL of enzyme (0.05 U final). After 5 min of preincubation at 25°C, the reaction was then initiated by the injection of 50 μL of 10 mM acetylthiocholine iodide solution. […] Assays were performed with a blank containing all components except acetylthiocholine, in order to account for non-enzymatic reaction. The reaction slopes were compared and the percent inhibition due to the presence of test compounds was calculated by the following expression: 100 − (vi/v0 × 100) where vi is the rate calculated in the presence of inhibitor and v0 is the enzyme activity.

Human 5-HT4R = molecular target: T2, Human 5-HT4R (Homo sapiens, UniProt Q13639); assay: [3H]-GR113808 competition binding on 5-HT4(b) membrane preparations; conditions: for inhibition / inhibition at 0.0002 µM: 0.2 nM [3H]-GR113808; for Ki: (h)5-HT4R Ki, n = 3, Ki ± SD
T2 construct: purchased Eurofins HTS110M
T2 sequence (Q13639 whole entry): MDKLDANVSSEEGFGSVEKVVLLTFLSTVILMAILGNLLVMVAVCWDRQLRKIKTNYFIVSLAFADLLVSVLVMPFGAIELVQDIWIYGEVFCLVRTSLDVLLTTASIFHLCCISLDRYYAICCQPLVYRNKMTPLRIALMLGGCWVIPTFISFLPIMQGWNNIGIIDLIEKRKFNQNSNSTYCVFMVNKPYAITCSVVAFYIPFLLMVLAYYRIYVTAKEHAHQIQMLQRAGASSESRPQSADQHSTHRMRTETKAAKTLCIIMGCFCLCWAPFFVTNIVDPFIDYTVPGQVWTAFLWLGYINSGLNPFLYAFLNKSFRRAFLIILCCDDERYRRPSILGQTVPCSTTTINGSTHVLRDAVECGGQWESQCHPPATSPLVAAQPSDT
Procedure: At the end of the incubation, homogenates were filtered through Whatman GF/C filters (Alpha Biotech) presoaked with 0.5% polyethylenimine using a Brandel cell harvester. Filters were subsequently washed three times with 1 mL of ice-cold 25 mM Tris buffer (pH 7.4, 4°C). Non-specific binding was evaluated in parallel in the presence of 30 μM serotonin.
(§1) For some of these compounds, affinity constants were calculated from five-point inhibition curves using the GraphPad Prism 6 software and expressed as Ki ± SD.

human 5-HT6 receptors = molecular target: T3, human 5-HT6 receptors (Homo sapiens, UniProt P50406); assay: [3H]-LSD competition binding on membranes of HEK-293 cells expressing human 5-HT6 receptors; conditions: for inhibition / inhibition at 0.0025 µM: 2.5 nM [3H]-LSD; for Ki: (h)5-HT6R Ki, n = 3, Ki ± SD
T3 construct: purchased Perkin Elmer RBHS6M; host or cells: HEK-293 cells, transient expression (membranes)
T3 sequence (P50406 whole entry): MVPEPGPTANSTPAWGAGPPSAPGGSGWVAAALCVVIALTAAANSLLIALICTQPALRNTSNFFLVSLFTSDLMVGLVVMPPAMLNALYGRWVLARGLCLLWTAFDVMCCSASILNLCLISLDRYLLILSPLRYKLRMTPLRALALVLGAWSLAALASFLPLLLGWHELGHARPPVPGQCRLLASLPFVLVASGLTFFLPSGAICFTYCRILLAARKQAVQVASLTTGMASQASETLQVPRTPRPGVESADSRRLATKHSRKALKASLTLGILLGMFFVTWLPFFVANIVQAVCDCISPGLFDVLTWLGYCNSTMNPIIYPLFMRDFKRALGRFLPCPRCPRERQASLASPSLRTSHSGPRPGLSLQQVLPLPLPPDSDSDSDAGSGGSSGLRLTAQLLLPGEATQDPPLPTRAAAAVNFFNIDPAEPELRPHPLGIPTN
Procedure: Drugs were evaluated through their possibility to compete for the binding of [^3H]-LSD on membranes of HEK-293 cells transiently expressing the human 5-HT6 receptors (ref. RBHS6M, Perkin Elmer). […] At the end of the incubation, the homogenates were then filtered through Whatman GF/C filters and washed five times with ice-cold 25 mM Tris-HCl buffer. Non-specific binding was evaluated in the presence of 100 μM serotonin. Radioactivity associated to proteins was then quantified and expressed as the percentage of inhibition of the drugs under study.
as §1

[2] = read-out: (h)5-HT4R % inhibition at 10^−6M, 10^−6M
[3] = read-out: (h)5-HT4R % inhibition at 10^−8M, 10^−8M
[4] = read-out: (h)5-HT6R % inhibition at 10^−6M, 10^−6M
[5] = read-out: (h)5-HT6R % inhibition at 10^−8M, 10^−8M

| Structure (SMILES) | inhibition at 1 µM [1] [%] | inhibition (Human 5-HT4R; [2]) [%] | inhibition (Human 5-HT4R; [3]) [%] | affinity for 5-HT6R (in words) (human 5-HT6 receptors) | inhibition (human 5-HT6 receptors; [4]) [%] | inhibition (human 5-HT6 receptors; [5]) [%] | IC50 ([1]; n = 2, read-out: (h)AChE IC50) [nM] | Ki (human 5-HT6 receptors) [nM] | IC50 ([1]; (h)AChE IC50, n = 2) [nM] | Ki (Human 5-HT4R) | inhibition at 0.0002 µM (Human 5-HT4R; [3]) [%] | inhibition at 0.0025 µM (human 5-HT6 receptors; [4]) [%] | inhibitory effect towards AChE (in words) [1] |
| --- | --- | --- | --- | --- | --- | --- | --- | --- | --- | --- | --- | --- | --- |
| COc1cc(N)c(Cl)cc1C(=O)CCC1CCN(Cc2ccccc2)CC1 [5a] | 98 | 102 | 41 | devoid of such an activity | 29 | 0 | – | – | – | – | – | – | – |
| COc1cc(N)c(Cl)cc1C(=O)CCC1CCN(Cc2ccccc2F)CC1 [5d, 1-(4-Amino-5-chloro-2-methoxyphenyl)-3-(1-(2-fluorobenzyl)piperidin-4-yl)propan-1-one] | 96 | 94 | 10 | – | 68 | 21 | 102 ± 65.4 | – | – | – | – | – | – |
| COc1cc(N)c(Cl)cc1C(=O)CCC1CCN(Cc2cc([N+](=O)[O-])ccc2F)CC1 [5s, 1-(4-Amino-5-chloro-2-methoxyphenyl)-3-(1-(2-fluoro-5-nitrobenzyl)piperidin-4-yl)propan-1-one] | 63 | 62 | 4 | – | 18 | 5 | – | – | – | – | – | – | – |
| COc1cc(N)c(Cl)cc1C(=O)CCC1CCN(Cc2ccccc2Cl)CC1 [5b, 1-(4-Amino-5-chloro-2-methoxyphenyl)-3-(1-(2-chlorobenzyl)piperidin-4-yl)propan-1-one] | 91 | 94 | 16 | – | – | 27 | 156 ± 71 | 110 ± 19 | – | – | – | – | – |
| COc1cc(N)c(Cl)cc1C(=O)CCC1CCN(Cc2ccc(O)cc2)CC1 [5p, 1-(4-Amino-5-chloro-2-methoxyphenyl)-3-(1-(4-hydroxybenzyl)piperidin-4-yl)propan-1-one] | 98 | 100 | 23 | – | 24 | 0 | 6 ± 0.4 | – | – | – | – | – | – |
| COc1cc(N)c(Cl)cc1C(=O)CCC1CCN(Cc2cccc(C)c2)CC1 [5k, 1-(4-Amino-5-chloro-2-methoxyphenyl)-3-(1-(3-methylbenzyl)piperidin-4-yl)propan-1-one] | 89 | 98 | – | – | – | 9 | – | 230 ± 49 | 161 ± 43 | 168 ± 15 nM | ≥ 25 | > 70 | – |
| COc1cc(N)c(Cl)cc1C(=O)CCC1CCN(Cc2cc(N)ccc2F)CC1 [5t, 1-(4-Amino-5-chloro-2-methoxyphenyl)-3-(1-(5-amino-2-fluorobenzyl)piperidin-4-yl)propan-1-one] | 79 | 98 | 18 | – | 65 | 3 | 153 ± 19.9 | – | – | – | – | – | – |
| COc1cc(N)c(Cl)cc1C(=O)CCC1CCN(Cc2cccc(Br)c2)CC1 [5i, 1-(4-Amino-5-chloro-2-methoxyphenyl)-3-(1-(3-bromobenzyl)piperidin-4-yl)propan-1-one] | 44 | 94 | 5 | displayed affinity for 5-HT6R | 77 | 7 | – | 169 ± 44 | – | – | – | – | devoid of inhibitory effect towards AChE |
| COc1cc(N)c(Cl)cc1C(=O)CCC1CCN(Cc2cc(NC(C)=O)ccc2Br)CC1 [5r, N-(3-((4-(3-(4-Amino-5-chloro-2-methoxyphenyl)-3-oxopropyl)piperidin-1-yl)methyl)-4-bromophenyl) acetamide] | 13 | 96 | 6 | – | 35 | 7 | – | – | – | – | – | – | – |
| COc1cc(N)c(Cl)cc1C(=O)CCC1CCN(Cc2ccccc2Br)CC1 [5c, 1-(4-Amino-5-chloro-2-methoxyphenyl)-3-(1-(2-bromobenzyl)piperidin-4-yl)propan-1-one] | 80 | 96 | 17 | – | 65 | 34 | 317 ± 115 | – | – | – | – | – | – |
| COc1cc(N)c(Cl)cc1C(=O)CCC1CCN(Cc2ccccc2OCc2ccccc2)CC1 [5g, 1-(4-Amino-5-chloro-2-methoxyphenyl)-3-(1-(2-benzyloxybenzyl)piperidin-4-yl)propan-1-one] | 33 | 70 | 7 | – | 18 | 0 | – | – | – | – | – | – | – |
| COc1cc(N)c(Cl)cc1C(=O)CCC1CCN(Cc2cccc(F)c2)CC1 [5j, 1-(4-Amino-5-chloro-2-methoxyphenyl)-3-(1-(3-fluorobenzyl)piperidin-4-yl)propan-1-one] | 97 | 98 | 12 | – | 59 | 9 | 91 ± 53.8 | – | – | – | – | – | – |
| COc1cc(N)c(Cl)cc1C(=O)CCC1CCN(Cc2ccc(C)cc2)CC1 [5q, 1-(4-Amino-5-chloro-2-methoxyphenyl)-3-(1-(4-methylbenzyl)piperidin-4-yl)propan-1-one] | 87 | 100 | 24 | – | 21 | 21 | 450 | – | – | – | – | – | – |
| COc1cc(N)c(Cl)cc1C(=O)CCC1CCN(Cc2ccccc2I)CC1 [5e, 1-(4-Amino-5-chloro-2-methoxyphenyl)-3-(1-(2-iodobenzyl)piperidin-4-yl)propan-1-one] | 37 | 96 | 1 | displayed affinity for 5-HT6R | 81 | 25 | – | 186 ± 71 | – | – | – | – | devoid of inhibitory effect towards AChE |
| COc1cccc(CN2CCC(CCC(=O)c3cc(Cl)c(N)cc3OC)CC2)c1 [5l, 1-(4-Amino-5-chloro-2-methoxyphenyl)-3-(1-(3-methoxybenzyl)piperidin-4-yl)propan-1-one] | 35 | 94 | 9 | displayed affinity for 5-HT6R | 78 | 6 | – | 265 ± 64 | – | – | – | – | devoid of inhibitory effect towards AChE |
| COc1cc(N)c(Cl)cc1C(=O)CCC1CCN(Cc2ccccc2C)CC1 [5f, 1-(4-Amino-5-chloro-2-methoxyphenyl)-3-(1-(2-methylbenzyl)piperidin-4-yl)propan-1-one] | 87 | 98 | 9 | – | – | 24 | 225 ± 57.3 | 270 ± 14 | – | – | – | > 70 | – |
| COc1cc(N)c(Cl)cc1C(=O)CCC1CCN(Cc2cccc(N)c2)CC1 [5m, 1-(4-Amino-5-chloro-2-methoxyphenyl)-3-(1-(3-aminobenzyl)piperidin-4-yl)propan-1-one] | 93 | 100 | – | – | – | 31 | 41 ± 5 | 1150 ± 559 | – | 43 nM and 42.5 nM | ≥ 25 | > 70 | – |
| COc1cc(N)c(Cl)cc1C(=O)CCC1CCN(Cc2ccccc2O)CC1 [5h, 1-(4-Amino-5-chloro-2-methoxyphenyl)-3-(1-(2-hydroxybenzyl)piperidin-4-yl)propan-1-one] | 94 | 98 | 10 | – | 24 | 0 | 57.4 ± 9.4 | – | – | – | – | – | – |
